Consider 2 compounds from patent publication EP2604265A1, “P2x7 antagonists as frontline or adjunctive treatment against status epilepticus” (Royal College of Surgeons in Ireland (RCSI), priority 2011, dated 2013).

Experiment [1] deals with Adult male C57BL/6 mice. As to the kind of experiment: Histopathology of ipsilateral hippocampal CA3 after SE (FJB and NeuN counts). The class given is in vivo. The following applies: 24 h after SE, vs vehicle; for Counts of surviving CA3 neurons (NeuN) / FJB-positive cells within the CA3 subfield (neuronal death): drug given prior to SE. The protocol:
(§1) Adult male C57BL/6 mice (20-25 g) were obtained from Harlan UK (Blackthorn, UK). Mice were first anesthetized using isoflurane (3-5%) and maintained normothermic by means of a feedback-controlled heat blanket (Harvard Apparatus Ltd, Kent, UK). Mice were next placed in a stereotaxic frame and three partial craniectomies performed to affix cortical skull-mounted EEG electrodes (Bilaney Consultants Ltd, Sevenoaks, UK). EEG was recorded using a Grass Comet XL digital EEG (Medivent Ltd, Lucan, Ireland). A guide cannula was affixed (coordinates from Bregma: AP = 0.94; L = 2.85 mm) and the assembly fixed in place with dental cement. Anesthesia was then discontinued and freely moving mice were placed inside a clear perspex recording chamber. EEG recordings were commenced and after establishing baseline EEG for a few minutes, an injection cannula was lowered through the guide cannula for injection of kainic acid (KA) (Ocean Produce International, Nova Scotia, Canada) into the basolateral amygdala nucleus (0.3 µg in 0.2 µl phosphate-buffered saline). Non-seizure control mice underwent the same surgical procedure but received 0.2 µl intra-amygdala vehicle. Mice were killed at different time-points (1, 4, 8 or 24 h) later and perfused with saline to remove intravascular blood components. Brains were either flash-frozen whole in 2-methylbutane at 30°C or perfused with 4% PFA for histopathology, or dissected on ice to obtain whole hippocampus or microdissected to obtain the different hippocampal subfields (CA1, DG and CA3).
Flash-frozen brains in 2-methylbutane were sectioned at -20°C on a Leica cryostat and 12 µm sections collected at the level of dorsal hippocampus (-1.8 mm and - 2.9 mm from Bregma according to a mouse stereotaxic atlas (Paxinos and Franklin, 2001). Neuronal death was assessed using Fluoro-Jade B (FJB) staining, as previously described (Engel et al., 2010; Murphy et al., 2010). Briefly, sections were air-dried and post-fixed in formalin followed by hydrating through graded alcohols. Sections were then rinsed in distilled water and transferred to 0.006% potassium permanganate solution for 15 min. Sections were rinsed again and transferred to a 0.001% FJB solution according to manufacturer's recommendations (Chemicon Europe Ltd, Chandlers Ford, UK). After staining, sections were mounted in DPX (Sigma-Aldrich). For NeuN immunohistochemistry, sections were fixed and permeabilized, blocked in goat serum and incubated overnight with anti-NeuN antibodies (Millipore Ireland B.V., Tullagreen, Ireland) followed by incubation with goat anti-rabbit IgG antibodies coupled to AlexaFluor 568 (BioSciences Limited, Dun Laoghaire, Ireland). Sections were examined using a Nikon 2000s epifluorescence microscope under Ex/Em wavelengths of 472/520 nm (green) and 540 to 580/600 to 660 nm (red) and images captured using a Hamamatsu Orca 285 camera. Cell counts were the average of two adjacent sections for the CA3 subfield under 40x lens magnification by an observer blinded to treatment.

Experiment [2] concerns Adult male C57BL/6 mice. Put plainly: Intra-amygdala KA-induced SE in mice, EEG, drug i.c.v. immediately prior to KA. The class given is in vivo. The following applies: i.c.v. co-injection immediately prior to intra-amygdala KA; vs vehicle (antibody vs control IgG); lorazepam at 40 min. The protocol: as §1
Digitized EEG recordings were analyzed off-line using manual assessment and automated software. […] The duration of high-frequency (>5 Hz) high-amplitude (>2× baseline) polyspike discharges of ≥5 s duration (HAHFDs) was counted by a reviewer blind to treatment. Further EEG analysis was performed by uploading EEG into Labchart7 software (ADInstruments) to calculate the power spectral density (total power, a measure of the input signal's power (amplitude) over frequency) EEG spectrogram (spectral power against frequency and time).
All the following drugs were purchased from Sigma-Aldrich Ireland (Arklow, Ireland) and delivered by intracerebroventricular (i.c.v.) microinjection in 2 µl volume unless otherwise specified: Adenosine 5'-triphosphate (ATP) at 100 µM, Uridine-5'-triphosphate (UTP) at 100 µM, Uridine-5'-diphosphate (UDP) at 100 µM, 2-chloro-N6-cyclopentyladenosine (CCPA) 300 nM, Pyridoxal-phosphate-6-azophenyl-2,4-disulfonate (PPADS) at 50 µM, α,β- methylene- adenosine-5-triphosphate (α,β-meATP) at 0.1 nmol, 3-O-(4-benzoyl)benzyl-ATP (Bz-ATP) at 300 µM, Brillant Blue G (BBG) at 30 nM.
Lorazepam (Ativan®, Wyeth, Taplow, U.K.) (6 mg/kg) was administered intraperitoneally (i.p.) at 40 or 60 min after KA.
Next, a model of focal-onset SE was used to evaluate the contributions of ATP-gated receptors in vivo. Mice received intra-amygdala microinjection of KA to induce SE (Fig. 2C). […] The electroencephalogram (EEG) was recorded by using cranial electrodes (lower part of Fig. 2C). Seizures were curtailed after 40 min by the injection of lorazepam to minimize morbidity and mortality.

The test system of the next experiment is microglia. As to the kind of experiment: Iba-1 immunostaining, activated microglia counts in CA3 after SE. The class given is in vivo, mice. The settings on record: CA3, 24 h after SE; vs vehicle. The procedure: as §1, with “Brains were either flash-frozen whole in 2-methylbutane at 30°C or perfused with 4% PFA for histopathology, or dissected on ice to obtain whole hippocampus or microdissected to obtain the different hippocampal subfields (CA1, DG and CA3).” left out

For a further experiment, the system named is P2Y receptors. The settings on record: selectivity of BBG; cited from earlier work.

On to `Cl.Clc1cccc(-c2nnnn2Cc2cccnc2)c1Cl` [A-438079, 3-[[5-(2,3-Dichlorophenyl)-1H-tetrazol-1-yl]methyl]pyridine hydrochloride], for which, in the experiment on Adult male C57BL/6 mice [1], the “Counts of surviving CA3 neurons (NeuN)” value is “significantly higher” and the “FJB-positive cells within the CA3 subfield (neuronal death)” value was “protect the hippocampus against SE-induced neuronal death”. Besides, in the experiment with Adult male C57BL/6 mice [1] (injected 15 min after KA), the “FJB-positive cells in CA3” value is “significantly fewer” and the “NeuN-positive cells in CA3” value is listed as “significantly more”. The “seizure time during SE (duration of HAHFDs)” value in the experiment on Adult male C57BL/6 mice [2] is “significantly reduced seizure time”. In the experiment on microglia, the “Reactive microglia (Iba-1)” value is “significantly reduced”.
In the case of `CCOc1ccc(Nc2ccc(C(=C3C=CC(=[N+](CC)Cc4cccc(S(=O)(=O)[O-])c4)C=C3C)c3ccc(N(CC)Cc4cccc(S(=O)(=O)O)c4)cc3C)cc2)cc1` [BBG, Brilliant Blue G], the “inhibition of some P2Y receptors” value in the experiment on P2Y receptors was “low micromolar range”. For the same compound, in the experiment with Adult male C57BL/6 mice [1], the “Counts of surviving CA3 neurons (NeuN)” value is “significantly higher” and the “FJB-positive cells within the CA3 subfield (neuronal death)” value is given as “significantly less damage”. For the same compound, the “seizure time during SE (duration of HAHFDs)” value in the experiment with Adult male C57BL/6 mice [2] is given as “significantly reduced seizure time”. Moreover, the “Reactive microglia (Iba-1)” value in the experiment on microglia is reported as “significantly reduced”.
